Source: patent publication US12037346B2, “Amino-substituted heteroaryls for treating cancers with EGFR mutations” (Nuvalent, Inc., priority 2021, dated 2024)

What was measured:
[1] = tested on: A431 cells (amplification of the wild-type EGFR gene), phospho-ERK Thr202/Tyr204; assay: Cellular phosphorylation assay, pERK (phospho-ERK Thr202/Tyr204 AlphaLISA) in A431; type: cell-based; details: Homo sapiens, A-431, compound incubated for 5 hours
Method in brief: (§1)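 Cells (12,500/well) plated 1 day, then exposed to 3-fold compound dilutions for 5 h; for pEGFR only, A431 stimulated with EGF 30 ng/mL for 15 min. Lysates read by AlphaLISA for pHER2 Tyr1221/1222, pEGFR Tyr1068 or pERK Thr202/Tyr204; IC50 from percent inhibition by four-parameter logistic fit.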

[2] = target: T1, wild-type EGFR (A431 cells) (Homo sapiens, UniProt P00533); assay: Cellular phosphorylation assay, pEGFR (phospho-EGFR Tyr1068 AlphaLISA) in A431; type: cell-based; details: compound incubated for 5 hours, EGF (30 ng/mL) for 15 minutes
T1 construct: A431 bears amplification of the wild-type EGFR gene; endogenous in cells; host or cells: A431
Method in brief: as §1

[3] = target: T2, HER2-A775_G776insV-G776C (NCI-H1781 cells) (Homo sapiens, UniProt P04626, G776C/INS775V); assay: Cellular phosphorylation assay, pHER2 (phospho-ErbB2 Tyr1221/1222 AlphaLISA) in NCI-H1781; type: cell-based; details: compound incubated for 5 hours
T2 construct: NCI-H1781 is a HER2 exon20 insertion cell line bearing HER2-A775_G776insV-G776C; endogenous in cells; host or cells: NCI-H1781
Experimental: (§2) Besides Ba/F3s, two commercially available cell lines were also used. NCI-H1781 is a HER2 exon20 insertion cell line bearing HER2-A775_G776insV-G776C. A431 bears amplification of the wild-type EGFR gene.
Ba/F3 cells were plated at 50,000 cells/well (40 μL), or NCI-H1781 cells or A431 cells were plated at 12,500 cells/well (40 μL), in a 384-well plate for 1 day. Test compounds (40 nL) were then added in a 3-fold dilution series using the TECAN EV0200 liquid handler and incubated for 5 hours. Only for pEGFR analysis in A431, the cells were briefly stimulated with EGF (30 ng/mL) for 15 minutes. Media were removed using Apricot Designs. Phosphoproteins were analyzed using the phospho-EGFR Tyr1068 AlphaLISA kit (“pEGFR”; PerkinElmer #ALSU-PEGFR-B10K;) phospho-ERK Thr202/Tyr204 AlphaLISA kit (“pERK”; PerkinElmer #ALSU-PERK-A10K) or the phospho-ErbB2 Tyr1221/1222 AlphaLISA kit (“pHER2”; PerkinElmer #ALSU-PEB2-A10K;) according to the manufacturer's instructions. Briefly, cells were lysed with lysis buffer (10 μL) containing protease-inhibitor and phosphatase-inhibitor cocktails. The lysates were transferred into a new optical plate, incubated with the acceptor mix (5 μL) for 1.5-2 hours at room temperature in darkness, and then mixed with the donor mix (5 μL) overnight in darkness. Fluorescence was measured on a plate reader using the appropriate AlphaLISA settings. Half-maximal inhibitory concentration (IC50) was calculated from percent inhibition and inhibitor concentration using four-parameter logistic regression.
HER2 is phosphorylated when activated. Therefore, phospho-HER2 indicates HER2 activity in the cells.

[4] = target: Ba/F3 HER2-YVMA cells (HER2-A775_G776insYVMA) (Homo sapiens, UniProt P04626, DUP772-775, cells depend on it); assay: Cell proliferation assay (CellTiter-Glo), Ba/F3 HER2-YVMA; type: cell-based; details: read-out: Ba/F3 HER2-YVMA cell proliferation IC50
Method in brief: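 Ba/F3 cells stably expressing HER2-YVMA (IL-3-independent, puromycin-selected monoclones) seeded 1,000 cells/well, 1 day before 3-fold compound dilutions; incubated 48 h, 72 h, or 48 h then fresh compound and further 72 h. Viability by CellTiter-Glo luminescence; IC50 from percent inhibition by four-parameter logistic fit, first inflexion only where applicable.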

[5] = tested on: NCI-H1781 cells (HER2-A775_G776insV-G776C); assay: Cell proliferation assay (CellTiter-Glo), NCI-H1781; type: cell-based; details: first inflexion of biphasic curve
Experimental: as §2
Ba/F3 cells were plated at 1,000 cells/well (40 μL), or NCI-H1781 or A431 cells were plated at 2,000 cells/well (40 μL), in a 384-well plate for 1 day. Test compounds (40 nL) were then added in a 3-fold dilution series using the TECAN EV0200 liquid handler and incubated for 48 hours (“2 days”), 72 hours (“3 days”), or 48 hours followed by renewal of compound solutions and further incubation for 72 hours (“2 days/3 days”). The 72-hour assay was necessary for NCI-H1781 cells, which are slow-growing, and the resupply of fresh compounds on day 3 obviated the potential confounding effects arising from compound degradation in cell media over 72 hours. Plates were equilibrated at room temperature for 15 minutes followed by addition of 40 μL CellTiter-Glo reagent (Promega). Luminescence was measured on a plate reader. Half-maximal inhibitory concentration (IC50) was calculated from percent inhibition and inhibitor concentration using four-parameter logistic regression. […] In these cases, the regression curve was drawn only for the first inflexion to accurately measure on-target growth inhibitory effect.
Ba/F3, NCI-H1781, and A431 proliferation is driven by the oncogenes in the same way that cancer cell proliferation in humans is driven by the expression of equivalent oncogenes.

HER2 = HER2 (Homo sapiens, UniProt P04626); details: cited from earlier work
HER2, sequence (P04626 23-1255): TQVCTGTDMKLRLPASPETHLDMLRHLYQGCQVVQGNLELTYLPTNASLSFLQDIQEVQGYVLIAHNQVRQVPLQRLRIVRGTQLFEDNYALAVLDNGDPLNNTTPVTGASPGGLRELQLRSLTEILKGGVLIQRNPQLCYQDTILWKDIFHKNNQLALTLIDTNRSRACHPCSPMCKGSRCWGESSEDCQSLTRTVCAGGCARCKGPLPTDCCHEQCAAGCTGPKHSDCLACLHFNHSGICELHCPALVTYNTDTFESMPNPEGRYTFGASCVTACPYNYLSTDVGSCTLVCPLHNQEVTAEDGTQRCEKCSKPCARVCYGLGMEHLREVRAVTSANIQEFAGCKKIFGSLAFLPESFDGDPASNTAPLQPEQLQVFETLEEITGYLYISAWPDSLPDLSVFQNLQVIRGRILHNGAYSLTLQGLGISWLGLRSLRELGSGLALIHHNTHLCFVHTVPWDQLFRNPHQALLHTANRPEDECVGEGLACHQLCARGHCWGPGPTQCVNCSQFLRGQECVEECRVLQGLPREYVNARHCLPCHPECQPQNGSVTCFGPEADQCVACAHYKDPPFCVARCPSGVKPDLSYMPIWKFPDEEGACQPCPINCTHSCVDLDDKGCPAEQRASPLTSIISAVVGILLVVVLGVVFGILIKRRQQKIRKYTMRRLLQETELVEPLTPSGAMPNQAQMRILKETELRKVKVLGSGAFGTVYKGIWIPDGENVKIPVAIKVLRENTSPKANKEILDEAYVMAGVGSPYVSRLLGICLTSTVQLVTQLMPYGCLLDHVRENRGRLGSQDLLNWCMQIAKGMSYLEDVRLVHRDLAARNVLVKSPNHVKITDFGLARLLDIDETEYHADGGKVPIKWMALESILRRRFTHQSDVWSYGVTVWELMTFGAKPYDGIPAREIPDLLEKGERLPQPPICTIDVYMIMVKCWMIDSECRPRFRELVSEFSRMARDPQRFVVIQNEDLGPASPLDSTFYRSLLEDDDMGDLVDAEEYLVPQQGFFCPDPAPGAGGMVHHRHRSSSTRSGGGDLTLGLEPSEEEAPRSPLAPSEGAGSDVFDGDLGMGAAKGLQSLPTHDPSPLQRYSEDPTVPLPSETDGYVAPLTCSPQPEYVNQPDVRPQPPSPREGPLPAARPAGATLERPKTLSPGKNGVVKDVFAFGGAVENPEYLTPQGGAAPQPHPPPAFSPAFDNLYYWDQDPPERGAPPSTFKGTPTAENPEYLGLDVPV

T2 sequence (P04626 with tags, fused parts or gaps INS775V/G776C): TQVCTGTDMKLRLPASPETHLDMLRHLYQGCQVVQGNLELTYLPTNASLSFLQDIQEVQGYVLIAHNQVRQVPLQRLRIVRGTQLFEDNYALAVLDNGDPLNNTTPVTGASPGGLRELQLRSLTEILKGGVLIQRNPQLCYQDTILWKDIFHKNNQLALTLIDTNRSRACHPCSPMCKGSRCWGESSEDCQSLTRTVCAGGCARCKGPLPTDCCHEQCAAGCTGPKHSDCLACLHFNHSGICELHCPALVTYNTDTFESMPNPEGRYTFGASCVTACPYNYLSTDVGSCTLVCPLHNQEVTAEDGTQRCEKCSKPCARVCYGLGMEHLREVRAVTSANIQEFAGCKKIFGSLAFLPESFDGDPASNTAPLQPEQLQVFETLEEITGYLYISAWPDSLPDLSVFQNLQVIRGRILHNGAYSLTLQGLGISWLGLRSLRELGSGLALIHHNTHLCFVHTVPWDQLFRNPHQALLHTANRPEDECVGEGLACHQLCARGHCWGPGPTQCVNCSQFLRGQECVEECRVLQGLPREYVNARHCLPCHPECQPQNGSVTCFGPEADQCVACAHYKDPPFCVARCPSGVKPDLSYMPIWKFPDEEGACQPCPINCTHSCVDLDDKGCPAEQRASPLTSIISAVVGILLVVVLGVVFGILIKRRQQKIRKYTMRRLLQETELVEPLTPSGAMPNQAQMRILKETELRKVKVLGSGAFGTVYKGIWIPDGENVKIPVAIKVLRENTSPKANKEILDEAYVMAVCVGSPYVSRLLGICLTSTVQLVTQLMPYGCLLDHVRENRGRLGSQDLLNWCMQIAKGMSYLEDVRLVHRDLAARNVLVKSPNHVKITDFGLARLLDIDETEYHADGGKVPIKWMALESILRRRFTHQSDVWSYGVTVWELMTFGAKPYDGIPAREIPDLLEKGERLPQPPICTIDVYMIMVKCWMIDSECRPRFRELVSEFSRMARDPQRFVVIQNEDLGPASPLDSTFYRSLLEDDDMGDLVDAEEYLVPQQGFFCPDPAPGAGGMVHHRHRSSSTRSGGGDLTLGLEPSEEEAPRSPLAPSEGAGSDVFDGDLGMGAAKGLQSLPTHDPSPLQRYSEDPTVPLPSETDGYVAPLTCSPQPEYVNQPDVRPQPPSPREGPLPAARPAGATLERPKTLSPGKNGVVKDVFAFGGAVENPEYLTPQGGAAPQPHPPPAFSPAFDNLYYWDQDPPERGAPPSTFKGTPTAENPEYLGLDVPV
Ba/F3 HER2-YVMA cells (HER2-A775_G776insYVMA), sequence (P04626 with tags, fused parts or gaps DUP772-775): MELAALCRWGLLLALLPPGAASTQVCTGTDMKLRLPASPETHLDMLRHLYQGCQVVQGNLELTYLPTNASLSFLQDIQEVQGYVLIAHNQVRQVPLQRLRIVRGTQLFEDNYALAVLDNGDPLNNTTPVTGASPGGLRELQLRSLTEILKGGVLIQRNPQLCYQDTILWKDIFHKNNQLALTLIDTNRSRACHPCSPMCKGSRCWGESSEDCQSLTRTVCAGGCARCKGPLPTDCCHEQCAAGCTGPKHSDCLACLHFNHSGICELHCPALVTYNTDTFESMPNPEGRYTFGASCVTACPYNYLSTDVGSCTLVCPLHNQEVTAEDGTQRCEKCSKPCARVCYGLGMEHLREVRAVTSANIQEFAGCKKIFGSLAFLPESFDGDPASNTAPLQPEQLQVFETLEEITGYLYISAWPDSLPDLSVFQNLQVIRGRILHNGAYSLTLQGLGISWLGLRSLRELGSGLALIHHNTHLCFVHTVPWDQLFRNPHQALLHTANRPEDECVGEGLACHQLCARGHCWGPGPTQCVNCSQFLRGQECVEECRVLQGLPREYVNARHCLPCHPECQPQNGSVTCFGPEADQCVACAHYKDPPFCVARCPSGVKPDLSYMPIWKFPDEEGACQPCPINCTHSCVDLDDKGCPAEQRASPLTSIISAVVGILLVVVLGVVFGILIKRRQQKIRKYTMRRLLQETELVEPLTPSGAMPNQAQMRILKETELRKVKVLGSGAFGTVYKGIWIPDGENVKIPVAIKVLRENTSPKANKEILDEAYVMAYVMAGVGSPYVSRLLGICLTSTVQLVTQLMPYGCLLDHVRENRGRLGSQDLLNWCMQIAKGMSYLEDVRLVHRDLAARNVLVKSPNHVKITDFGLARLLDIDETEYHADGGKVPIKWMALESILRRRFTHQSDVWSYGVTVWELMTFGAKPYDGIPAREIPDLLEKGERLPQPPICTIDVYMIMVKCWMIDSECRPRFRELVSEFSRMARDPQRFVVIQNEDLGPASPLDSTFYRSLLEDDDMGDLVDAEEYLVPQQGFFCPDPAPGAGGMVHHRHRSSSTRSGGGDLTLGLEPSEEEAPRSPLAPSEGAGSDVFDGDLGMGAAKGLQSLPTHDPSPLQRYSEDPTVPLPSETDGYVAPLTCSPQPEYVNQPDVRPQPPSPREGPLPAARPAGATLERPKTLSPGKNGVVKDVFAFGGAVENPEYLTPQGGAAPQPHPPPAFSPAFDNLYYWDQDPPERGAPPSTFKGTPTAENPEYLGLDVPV
T1 sequence (P00533 25-1210): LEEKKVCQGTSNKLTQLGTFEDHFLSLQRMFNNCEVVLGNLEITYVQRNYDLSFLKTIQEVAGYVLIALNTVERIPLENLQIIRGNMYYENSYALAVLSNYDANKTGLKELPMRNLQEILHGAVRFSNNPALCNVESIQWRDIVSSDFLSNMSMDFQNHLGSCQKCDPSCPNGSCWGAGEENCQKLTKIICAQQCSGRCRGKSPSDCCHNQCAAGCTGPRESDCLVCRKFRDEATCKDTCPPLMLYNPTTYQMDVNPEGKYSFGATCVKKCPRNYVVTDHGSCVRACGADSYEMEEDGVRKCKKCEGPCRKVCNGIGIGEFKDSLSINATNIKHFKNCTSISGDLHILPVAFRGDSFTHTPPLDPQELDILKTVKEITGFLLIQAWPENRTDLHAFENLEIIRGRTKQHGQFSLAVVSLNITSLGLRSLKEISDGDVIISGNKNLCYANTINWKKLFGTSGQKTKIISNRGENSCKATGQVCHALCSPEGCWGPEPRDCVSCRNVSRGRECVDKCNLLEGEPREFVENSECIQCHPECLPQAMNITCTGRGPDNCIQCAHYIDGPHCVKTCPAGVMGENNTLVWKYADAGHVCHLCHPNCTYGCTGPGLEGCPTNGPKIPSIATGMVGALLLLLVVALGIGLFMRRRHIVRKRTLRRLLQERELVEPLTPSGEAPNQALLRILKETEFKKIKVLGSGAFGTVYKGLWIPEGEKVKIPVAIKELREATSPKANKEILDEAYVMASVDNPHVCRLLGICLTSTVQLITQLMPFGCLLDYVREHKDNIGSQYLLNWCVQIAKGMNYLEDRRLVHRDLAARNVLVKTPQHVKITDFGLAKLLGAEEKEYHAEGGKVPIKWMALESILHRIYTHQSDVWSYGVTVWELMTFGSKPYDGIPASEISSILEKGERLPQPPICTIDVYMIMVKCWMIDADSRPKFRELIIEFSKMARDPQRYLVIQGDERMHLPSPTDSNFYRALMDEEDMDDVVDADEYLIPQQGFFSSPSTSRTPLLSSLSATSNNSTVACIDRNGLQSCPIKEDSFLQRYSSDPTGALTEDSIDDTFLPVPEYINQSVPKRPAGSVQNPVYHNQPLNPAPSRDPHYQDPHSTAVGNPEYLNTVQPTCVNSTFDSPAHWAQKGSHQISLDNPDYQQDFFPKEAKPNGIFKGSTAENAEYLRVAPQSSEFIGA

SMILES | IC50 [1] [nM] | IC50 [2] [nM] | IC50 [3] [nM] | GI50 [4] [nM] | IC50 [5] [nM] | median progression free survival (HER2; compared to placebo (5.6 months)) [months] | median overall survival (HER2; compared to placebo (17.4 months)) [months] | objective response rate (HER2; compared to placebo (23%)) [%]
C=CC(=O)N1CCC(c2ncc3ncnc(Nc4ccc(Oc5ccn6ncnc6c5)c(C)c4F)c3n2)=C[C@@H]1C [Example 54] | 100 to 500 | 500 to 1000 | < 100 | < 100 | < 100 |  |  | 
C=CC(=O)N1CCN(c2ccc3ncnc(Nc4ccc(Oc5ccn6ncnc6c5)c(C)c4)c3n2)CC1 [Example 9] | 500 to 1000 | 100 to 500 | < 100 | < 100 | < 100 |  |  | 
CC#CC(=O)N1CC=C(c2ccc3ncnc(Nc4ccc(Oc5ccn6ncnc6c5)c(C)c4)c3n2)CC1 [Example 2, 1-(4-(4-((4-([1,2,4]triazolo[1,5-a]pyridin-7-yloxy)-3-methylphenyl)amino)pyrido[3,2-d]pyrimidin-6-yl)-3,6-dihydropyridin-1(2H)-yl)but-2-yn-1-one] | 500 to 1000 | 500 to 1000 | < 100 | < 100 | < 100 |  |  | 
C=CC(=O)N1CC=C(c2ccc3ncnc(Nc4ccc(Oc5ccn6ncnc6c5)c(C)c4F)c3n2)CC1 [Example 5] | ≥ 1000 | ≥ 1000 | < 100 | < 100 | 100 to 500 |  |  | 
C=CC(=O)N1CC=C(c2ccc3ncnc(Nc4ccc(Oc5ccn6ncnc6c5)c(C)c4)c3n2)CC1 [Example 12] | 500 to 1000 | 500 to 1000 | < 100 | < 100 | < 100 |  |  | 
C=CC(=O)N1CCN(c2ncc3ncnc(Nc4ccc(Oc5ccn6ncnc6c5)c(C)c4F)c3c2F)C[C@H]1C [Example 52] | ≥ 1000 | ≥ 1000 | < 100 | < 100 | < 100 |  |  | 
Cc1cc(Nc2ncnc3ccc(NC4=NC(C)(C)CO4)cc23)ccc1Oc1ccn2ncnc2c1 [Tucatinib] |  |  |  |  |  | 7.8 | 21.9 | 41
C=CC(=O)N1CCN(c2ccc3ncnc(Nc4ccc(Oc5ccn6ncnc6c5)c(C)c4F)c3c2F)C[C@H]1C [Example 53] | ≥ 1000 | ≥ 1000 | < 100 | < 100 | < 100 |  |  | 
C=CC(=O)N1CC=C(c2ncc3ncnc(Nc4ccc(Oc5ccn6ncnc6c5)c(C)c4)c3n2)CC1 [Example 18] | 500 to 1000 | 500 to 1000 | < 100 | < 100 | < 100 |  |  | 
